The species named for assay [1] is Homo sapiens. Put plainly: Chondrogenic activity in human ASC assessed as increase in aggrecan expression at 1 uM incubated for 11 days by sandwich ELISA relative to control. In kind it is functional.
Assay [2] is filed under the species Homo sapiens. Put plainly: Chondrogenic activity in human ASC assessed as increase in aggrecan expression at 10 uM incubated for 11 days by sandwich ELISA relative to control. Format: functional. For orientation: In an ELISA, binding on a coated surface is turned into a signal by an enzyme label.
The species named for assay [3] is Homo sapiens. The assay can be described thus: Chondrogenic activity in human ASC assessed as increase in aggrecan expression incubated for 11 days by sandwich ELISA relative to control. Format: functional.
Assay [4] is filed under the species Homo sapiens. Put plainly: Upregulation of ERK phosphorylation in human ASC at 0.1 to 1 uM by Western blot analysis. The following applies: TDE = time-dependent effect. (A western blot detects proteins with antibodies after separation by electrophoresis.)
The species entered for assay [5] is Homo sapiens. The assay can be described thus: Induction of differentiation in human ASC after 11 days by alcian blue staining based analysis relative to control. In kind it is functional.
Assay [6] is filed under the species Rattus norvegicus. The assay can be described thus: Induction of cartilage repair in collagenase2-induced osteoarthritis rat model assessed as recovery of cartilage thickness at 10 uM on day 7 and 21 by safranin O/fast green staining-based optical microscopic analysis. In kind it is functional, organism-based.
Assay [7] is filed under the species Rattus norvegicus. The assay can be described thus: Induction of cartilage repair in collagenase2-induced osteoarthritis rat model assessed as recovery of cartilage thickness injected with 10 uM compound-treated human ASC on day 7 and 21 by safranin O/fast green staining-based optical microscopic analysis. In kind it is functional, organism-based.
For assay [8], the species on record is Homo sapiens. The assay can be described thus: Chondrogenic activity in human ASC assessed as increase in aggrecan expression at 10 uM incubated for 11 days in presence of MEK inhibitor U0126 by sandwich ELISA relative to control. In kind it is functional.
The species entered for assay [9] is Rattus norvegicus. Put plainly: Upregulation of aggrecan expression in collagenase2-induced osteoarthritis rat model injected with 10 uM compound-treated human ASC on day 7 and 21 by immunohistochemistry. Format: functional, organism-based.
The species named for assay [10] is Rattus norvegicus. The assay can be described thus: Induction of cartilage repair in collagenase2-induced osteoarthritis rat model assessed as increase in proteoglycan content injected with 10 uM compound-treated human ASC + on day 7 and 21 by safranin O/fast green staining-based optical microscopic analysis. In kind it is functional, organism-based.
The species entered for assay [11] is Rattus norvegicus. The assay can be described thus: Upregulation of aggrecan expression in collagenase2-induced osteoarthritis rat model injected with 10 uM compound on day 7 and 21 by immunohistochemistry. Format: functional, organism-based.

The record followed here is ChEMBL document CHEMBL4428103, “Potential therapeutic application of small molecule with sulfonamide for chondrogenic differentiation and articular cartilage repair” (Bioorg Med Chem Lett, 2016).

Calls of active or inactive are those of the source. The calls are words filed in the database; no cut-off is given here.

On to `Cc1ccc(S(=O)(=O)Nc2ccc(O)c3ccccc23)cc1`, for which the fold change (FC) in [1] and in assay [2] was 2 in each case.

Regarding `CC(C)(C)c1ccc(S(=O)(=O)Nc2ccc(O)c(F)c2)cc1`, the result in assay [1] was inactive.

For the compound `CC(C)(C)c1ccc(S(=O)(=O)Nc2ccc(O)cc2F)cc1`, in assay [1], the outcome was inactive.

For the compound `Cc1ccc(S(=O)(=O)Nc2cccc3ccc(O)cc23)cc1`, the result in [1] was inactive. The outcome in [2] was Active.

Take `O=S(=O)(Nc1ccc(O)cc1)c1ccc2ccccc2c1`: the result in [1] and in assay [2] was inactive.

As to `O=S(=O)(Nc1cccc2ccc(O)cc12)c1cccc2cccnc12`, the fold change (FC) in assay [1] and in assay [2] was 2 in each case.

As for `CCN(c1cc(O)ccc1C)S(=O)(=O)c1ccc(C(C)(C)C)cc1`, the outcome in assay [1] and in assay [2] was inactive.

Turning to `O=S(=O)(Nc1ccc(O)c(F)c1)c1ccc(-c2ccccc2)cc1`, the outcome in [1] was inactive.

With `O=S(=O)(Nc1ccc(O)cc1)c1cccc2cccnc12`, the figures for the Activity result in assay [3] and in assay [4] were “Dose-dependent effect” and “Tde”, respectively. For the same compound, the fold change (FC) is 3 in assay [5], 2 in [1] and 2 in assay [2]. Also, the result in [6], in [7], in [9], in [10] and in assay [11] was Active. In addition, the outcome in assay [8] was inactive.

Turning to `CC(C)(C)c1ccc(S(=O)(=O)Nc2cccc(O)c2)cc1`, the result in [1] was inactive.

On to `O=S(=O)(Nc1cccc2c(O)cccc12)c1ccc(-c2ccccc2)cc1`, for which the fold change (FC) in [1] and in assay [2] was 2 in each case.

As for `O=[N+]([O-])c1cc(NS(=O)(=O)c2ccc3ccccc3c2)ccc1O`, the result in assay [1] was inactive. The result in [2] was Active.

Regarding `O=S(=O)(Nc1ccc(O)cc1Cl)c1ccc2ccccc2c1`, the outcome in assay [1] was inactive. The outcome in [2] was Active.

Regarding `O=C(O)c1cc(NS(=O)(=O)c2cccc3cccnc23)ccc1O`, the fold change (FC) in [1] and in [2] was 2 throughout.

As to `O=S(=O)(NCCc1ccc(O)c(O)c1)c1ccc2ccccc2c1`, the result in assay [1] and in [2] was inactive.

`CCN(c1cc(O)ccc1C)S(=O)(=O)c1ccc2ccccc2c1`: the outcome in assay [1] and in [2] was inactive.

Take `CC(C)(C)c1ccc(S(=O)(=O)Nc2ccc(O)cc2Cl)cc1`: the result in [1] was inactive.

As for `O=S(=O)(Nc1ccc(O)cc1F)c1ccc(-c2ccccc2)cc1`, the outcome in assay [1] was inactive.

With `O=S(=O)(NC1CCC(CCO)CC1)c1ccc2ccccc2c1` (configuration not stated), the outcome in assay [1] and in assay [2] was inactive.

Turning to `CC(C)(C)c1ccc(S(=O)(=O)NC2CCC(CCO)CC2)cc1` (configuration not stated), the outcome in assay [1] and in [2] was inactive.

Consider `O=S(=O)(Nc1ccc(O)cc1F)c1ccc2ccccc2c1`, for which, in [1], the outcome was inactive. Besides, in [2], the result was Active.

Regarding `CC(C)(C)c1ccc(S(=O)(=O)Nc2ccc(O)c(C(=O)O)c2)cc1`, the fold change (FC) in assay [1] and in [2] was 2 each time.

For the compound `Cc1ccc(S(=O)(=O)Nc2cccc3c(O)cccc23)cc1`, the outcome in assay [1] was inactive. In assay [2], the outcome was Active.

Take `O=S(=O)(NC1CCC(CCO)CC1)c1ccc(-c2ccccc2)cc1` (configuration not stated): the result in assay [1] and in assay [2] was inactive.

In the case of `O=S(=O)(Nc1ccc(O)cc1Cl)c1ccc(-c2ccccc2)cc1`, the result in assay [1] was inactive.

As to `O=S(=O)(Nc1ccc(O)c(F)c1)c1ccc2ccccc2c1`, the result in [1] was inactive.

Consider `O=S(=O)(NCCc1ccc(O)c(O)c1)c1ccc(-c2ccccc2)cc1`, for which the result in assay [1] and in assay [2] was inactive.

Consider `CC(C)(C)c1ccc(S(=O)(=O)NCCc2ccc(O)c(O)c2)cc1`, for which the result in [1] and in [2] was inactive.
